Test results as given in patent US20100120752A1, “MUSCARINIC AGONISTS TO TREAT IMPULSE CONTROL DISORDERS” (Solvay Pharmaceuticals, B.V., priority 2007, published 2010).

Columns and labels:
Male Wistar rats = assay: 5-Choice Serial Reaction Time task, MK801 alone; type: in vivo, rat; settings: for number of anticipatory responses / number of correct responses / number of fault responses / number of missed responses / percentage of correct responses / persevering responses / total number of responses: ±S.E.M.
Source text: (§1) Male Wistar rats weighing 330-450 g (Harlan, The Netherlands) were housed in pairs under a 12-h light/dark cycle (lights off at 7:00 a.m.) and had daily access to a limited amount of food that kept their body weight at approximately 85% of the free feeding weight. Water was available ad libitum. All procedures were in compliance with the European Communities Council Directive of Nov. 24, 1986 (86/609 EEC).
(§2) Standard 5-CSRT boxes from MED associates Inc. Georgia, Vt. US were used. The curved wall of the chamber contained five 1.6 cm2 holes, 2.2 cm deep, 2 cm above floor level. […] In every hole a yellow stimulus light was presented. A food dispenser was located at the opposite wall. The box was illuminated by a 28 Volt 100 mA house light. The 5-CSRT boxes were placed in sound attenuating cubicles. On-line control of the apparatus and data collection were performed by a MED-PC experimental apparatus programming system (Tatham, 1989), running on a Dell Optiplex GX1 PC.
(§3) Rats were first trained to collect reinforcement pellets from the food dispenser and to collect reinforcements that were placed in the 5 holes in order to habituate the animals to the 5-CSRT task apparatus. Next, training of the 5-CSRT task started. These sessions started by illumination of the light in one of the holes for 30 seconds (stimulus duration). A response by the rat into the illuminated hole or a response in that particular hole for a short period of time after the illumination (the limited hold 60 sec) was rewarded with the delivery of a food pellet, termination of the trial and a correct response was recorded. The light stimulus was presented in each of the holes 20 times during a session (total of 100 presentations), and the order of presentations was randomized. […] After termination of the trial a variable inter-trial interval was started (1, 3, 5, 7 or 9 sec) after which the next trial was started. Upon reaching a 75% correct performance level the duration of illumination of the light stimulus was reduced until a presentation of 0.5 sec (from 30 to 20, 10, 5, 2, 1, 0.9; 0.8; 0.7; 0.6; 0.5.) and a limited hold of 5 sec (in three steps from 30 to 20, 10 and 5 sec), was reached. (Robbins, 1993).
(§4) The following parameters were measured (Muir, 1996):
(§5) Accuracy: the percentage correct responses divided by the total responses made.
(§6) Errors of omission: the number of missed stimulus presentations.
(§7) Correct responses: the number of correct responses.
(§8) Fault responses: the number of responses in the wrong hole.
(§9) Anticipatory responses: the number of premature responses made preceding the presentation of the light stimulus.
(§10) Persevering responses: responses emitted after an incorrect or correct response.
MK801 was tested in a Latin hexagon design, meaning that each rat received all test dosages (0, 0.01, 0.025 and 0.05 mg/kg s.c.) in a random order.

[1] = tested on: MK801 induced increase of anticipatory responses of rats; assay: 5-Choice Serial Reaction Time task, interaction studies against MK801; type: in vivo, rat; settings: ±SEM
Source text: as §1, §2, §3, §4, §5, §6, §7, §8, §9, §10
Both xanomeline and desmethylclozapine were each tested in the same dose range against 0.05 mg/kg (s.c.) MK801, a dose shown to elicit unequivocal impulsive behavior (see Table 1).

[2] = evident at 0.025 mg/kg and 0.05 mg/kg, p<0.05
[3] = first series, MK801 0.01 mg/kg s.c.
[4] = first series, MK801 0.025 mg/kg s.c.
[5] = first series, MK801 0.05 mg/kg s.c.
[6] = second series, MK801 0.01 mg/kg s.c.
[7] = second series, MK801 0.025 mg/kg s.c.
[8] = second series, MK801 0.05 mg/kg s.c.
[9] = 0.05 mg/kg (s.c.) MK801 with 0 mg/kg desmethylclozapine
[10] = 0.05 mg/kg (s.c.) MK801 with 0 mg/kg xanomeline

SMILES: CC12NC(Cc3ccccc31)c1ccccc12 (centres unmarked) [MK801, dizocilpine]
- effect on missed responses (Male Wistar rats; [2]): decreased
- effect on number of anticipatory responses (Male Wistar rats; [2]): boosted
- effect on persevering responses (Male Wistar rats; [2]): boosted
- effect on total number of responses (Male Wistar rats; [2]): boosted
- number of anticipatory responses (Male Wistar rats; [3]): 51.3 ± 5.4
- number of correct responses (Male Wistar rats; [3]): 52.6 ± 3.3
- number of fault responses (Male Wistar rats; [3]): 19.8 ± 2.2
- number of missed responses (Male Wistar rats; [3]): 27.7 ± 3.3
- percentage of correct responses (Male Wistar rats; [3]): 72.6 ± 2.8%
- persevering responses (Male Wistar rats; [3]): 7.9 ± 1
- total number of responses (Male Wistar rats; [3]): 72.3 ± 3.3
- number of anticipatory responses (Male Wistar rats; [4]): 73.2 ± 8.7
- number of correct responses (Male Wistar rats; [4]): 53.8 ± 3.9
- number of fault responses (Male Wistar rats; [4]): 22.6 ± 2.7
- number of missed responses (Male Wistar rats; [4]): 23.6 ± 2.9
- percentage of correct responses (Male Wistar rats; [4]): 70.0 ± 3.7%
- persevering responses (Male Wistar rats; [4]): 17.7 ± 4.1
- total number of responses (Male Wistar rats; [4]): 76.4 ± 2.9
- number of anticipatory responses (Male Wistar rats; [5]): 148.6 ± 38.6
- number of correct responses (Male Wistar rats; [5]): 55.3 ± 3.2^
- number of fault responses (Male Wistar rats; [5]): 26.0 ± 2.7^
- number of missed responses (Male Wistar rats; [5]): 18.7 ± 3.1
- percentage of correct responses (Male Wistar rats; [5]): 68.0 ± 3%
- persevering responses (Male Wistar rats; [5]): 28.2 ± 4.7
- total number of responses (Male Wistar rats; [5]): 81.3 ± 3.1
- number of anticipatory responses (Male Wistar rats; [6]): 78.1 ± 14.8
- number of correct responses (Male Wistar rats; [6]): 60.8 ± 2.1
- number of fault responses (Male Wistar rats; [6]): 21.8 ± 2.1
- number of missed responses (Male Wistar rats; [6]): 17.5 ± 2.1
- percentage of correct responses (Male Wistar rats; [6]): 73.8 ± 2.3%
- persevering responses (Male Wistar rats; [6]): 11.1 ± 3.1
- total number of responses (Male Wistar rats; [6]): 82.5 ± 2.1
- number of anticipatory responses (Male Wistar rats; [7]): 97.3 ± 16.2
- number of correct responses (Male Wistar rats; [7]): 62.7 ± 2.9
- number of fault responses (Male Wistar rats; [7]): 21.8 ± 1.9
- number of missed responses (Male Wistar rats; [7]): 15.6 ± 1.9
- percentage of correct responses (Male Wistar rats; [7]): 74.0 ± 2.5%
- persevering responses (Male Wistar rats; [7]): 10.7 ± 1.7
- total number of responses (Male Wistar rats; [7]): 84.4 ± 1.9
- number of anticipatory responses (Male Wistar rats; [8]): 148.3 ± 29.8
- number of correct responses (Male Wistar rats; [8]): 62.3 ± 2.9^
- number of fault responses (Male Wistar rats; [8]): 23.3 ± 2.3^
- number of missed responses (Male Wistar rats; [8]): 14.5 ± 1.8
- percentage of correct responses (Male Wistar rats; [8]): 72.7 ± 2.6^ %
- persevering responses (Male Wistar rats; [8]): 18.8 ± 4.2
- total number of responses (Male Wistar rats; [8]): 85.5 ± 1.8
- effect on numbers of correct responses (Male Wistar rats; summary of table 1): does not influence
- effect on numbers of fault responses (Male Wistar rats; summary of table 1): does not influence
- % correct responses [1, 9]: 66.2 ± 3.8%
- nr anticipatory resp [1, 9]: 116.8 ± 19.9
- nr of correct resp [1, 9]: 53.8 ± 4.4
- nr of fault resp [1, 9]: 25.9 ± 2.1
- nr of missed resp [1, 9]: 20.3 ± 3.7
- persevering resp [1, 9]: 20.2 ± 3.2
- total nr of resp [1, 9]: 79.7 ± 3.7
- % correct resp [1, 10]: 66.9 ± 3.5%
- nr anticipatory resp [1, 10]: 133.8 ± 23.5
- nr of correct resp [1, 10]: 53.3 ± 3.9
- nr of fault resp [1, 10]: 25.9 ± 2.7
- nr of missed resp [1, 10]: 20.8 ± 3.4
- persevering resp [1, 10]: 16.9 ± 2.6
- total nr of resp [1, 10]: 79.3 ± 3.4
